Measurements: US20250250282A1, “NOVEL SEVEN-MEMBERED RING-FUSED COMPOUNDS” (PRISM Biolab Co., Ltd., priority 2022, published 2025)

These compounds were tested on CellSensor T-REx NICD CSL-bla HeLa cell line (Notch response element driving beta-lactamase reporter) (assay: Notch assay (CSL-bla beta-lactamase reporter, DOX-inducible NICD)). Conditions: Homo sapiens; 10 μM compound; HeLa/T-REx NICD CSL-bla cells, doxycycline-induced, 16-20 hours incubation; blue/green emission ratio.
Format: cell-based
Procedure: We used the CellSensor T-REx™ NICD CSL-bla HeLa cell line, which was engineered by lentiviral transduction of HeLa cells with a Notch response element driving beta-lactamase reporter gene expression (CSL-bla) along with DOX (doxycycline)-inducible NICD (Notch intracellular domain) constructs. Addition of DOX to these cells allows for regulated NICD transcription factor expression and subsequent beta-lactamase expression.
Specifically, the following protocol was used.
• 1. Plate Cells: 32 μL/well of HeLa/T-REx™ NICD CSL-bla cells at 10^3 cells/well complete medium into 384-well plate. • 2. Prepare 10× compounds in assay medium. • 3. Add 4 μL compounds or 1% DMSO in assay medium to the cells. • 4. Add 4 μL 10× Doxycycline in Assay Medium to the treated wells, and 4 μL Assay Medium to the Untreated and cell free control wells. • 5. Incubate the assay plate in a humidified 37° C./5% CO2 incubator for 16-20 hours. • 6. Preparation of 6× LiveBLAzer™-FRET B/G Substrate (CCF4-AM) Mixture according to the manual and cell loading should be done in the absence of direct strong lighting. • 7. Remove assay plate from the humidified 37° C./5% CO2 incubator. Add 8 μl of 6× Substrate Mixture from […] to each well. Cover the plate to protect it from light and evaporation. Incubate at room temperature for 4 hours. • 8. Reading an Assay Plate using the following filter selections:
• 9. Data analysis: Use the assay plate layout to identify the location of the Cell-free wells. These control wells are used for background subtraction. Determine the average emission from the Cell-free wells at both 460 nm (Average Blue Background) and 530 nm (Average Green Background). Subtract the Average Blue Background (data collected at 460 nm) from all of the blue emission data. Subtract the Average Green background (data collected at 530 nm) from all of the green emission data. Calculate the Blue/Green Emission Ratio for each well, by dividing the background-subtracted blue emission values by the background-subtracted green emission values.
Work on `CC(C)COC(=O)N1c2ccsc2C(=O)N2C[C@@H](Cc3ccc(O)cc3)C(=O)N(Cc3cccc4ccccc34)CC21` (stereo partly drawn) [ID-38, isobutyl (8R)-8-(4-hydroxybenzyl)-6-(naphthalen-1-ylmethyl)-7,11-dioxo-4a,5,6,7,8,9-hexahydrothieno[3′,2′:4,5]pyrimido[1,2-a][1,4]diazepine-4(11H)-carboxylate] yielded an inhibition at 10 µM of 52.4%.
For `CCCCN1CC2N(C[C@@H](Cc3ccc(O)cc3)C1=O)C(=O)c1sccc1N2C(=O)NCc1ccc(C)cc1` (stereo partly drawn) [ID-36, (8R)-6-butyl-8-(4-hydroxybenzyl)-N-(4-methylbenzyl)-7,11-dioxo-4a,5,6,7,8,9-hexahydrothieno[3′,2′:4,5]pyrimido[1,2-a][1,4]diazepine-4(11H)-carboxamide], the inhibition at 10 µM was 55.9%.
`CC(C)[C@@H]1CN2C(=O)CCN(C(=O)NCCC(c3ccccc3)c3ccccc3)C2CN(Cc2ccc3ccccc3c2)C1=O` (stereo partly drawn) [ID-14, (7R)—N-(3,3-diphenylpropyl)-7-isopropyl-9-(naphthalen-2-ylmethyl)-4,8-dioxooctahydropyrimido[1,2-a][1,4]diazepine-1(2H)-carboxamide] was tested, and the inhibition at 10 µM was 62.4%.
`CCCCN1CC2N(C[C@@H](Cc3ccc(O)cc3)C1=O)C(=O)c1sccc1N2C(=O)NCc1ccc2c(c1)OCO2` (stereo partly drawn) [ID-32, (8R)—N-(benzo[d][1,3]dioxol-5-ylmethyl)-6-butyl-8-(4-hydroxybenzyl)-7,11-dioxo-4a,5,6,7,8,9-hexahydrothieno[3′,2′:4,5]pyrimido[1,2-a][1,4]diazepine-4(11H)-carboxamide] gave an inhibition at 10 µM of 52.5%.
`CC(C)CCN1CC2N(C[C@@H](Cc3ccc(O)cc3)C1=O)C(=O)c1sccc1N2C(=O)NCc1ccc2c(c1)OCO2` (stereo partly drawn) [ID-33, (8R)—N-(benzo[d][1,3]dioxol-5-ylmethyl)-8-(4-hydroxybenzyl)-6-isopentyl-7,11-dioxo-4a,5,6,7,8,9-hexahydrothieno[3′,2′:4,5]pyrimido[1,2-a][1,4]diazepine-4(11H)-carboxamide] showed an inhibition at 10 µM of 68.2%.
`O=C1[C@H](Cc2ccc(O)cc2)CN2C(=O)CCN(C(=O)NCCC(c3ccccc3)c3ccccc3)C2CN1CCc1ccccc1` (stereo partly drawn) [ID-11, (7R)—N-(3,3-diphenylpropyl)-7-(4-hydroxybenzyl)-4,8-dioxo-9-phenethyloctahydropyrimido[1,2-a][1,4]diazepine-1(2H)-carboxamide] was tested, and the inhibition at 10 µM was 64.1%.
In the case of `O=C1[C@H](Cc2ccc(O)cc2)CN2C(=O)c3sccc3N(C(=O)NCC3CCCCC3)C2CN1Cc1cccc2cccnc12` (stereo partly drawn) [ID-30, (8R)—N-(cyclohexylmethyl)-8-(4-hydroxybenzyl)-7,11-dioxo-6-(quinolin-8-ylmethyl)-4a,5,6,7,8,9-hexahydrothieno[3′,2′:4,5]pyrimido[1,2-a][1,4]diazepine-4(11H)-carboxamide], the inhibition at 10 µM is reported as 61.2%.
With `O=C1[C@H](Cc2ccccc2)CN2C(=O)CCN(C(=O)NCC3CCCCC3)C2CN1Cc1cccc2ccccc12` (stereo partly drawn) [ID-16, (7R)-7-benzyl-N-(cyclohexylmethyl)-9-(naphthalen-1-ylmethyl)-4,8-dioxooctahydropyrimido[1,2-a][1,4]diazepine-1(2H)-carboxamide] the inhibition at 10 µM was 60.2%.
With `CC(C)C[C@@H]1CN2C(=O)CCN(C(=O)NCCC(c3ccccc3)c3ccccc3)C2CN(CCc2ccccc2)C1=O` (stereo partly drawn) [ID-10, (7R)—N-(3,3-diphenylpropyl)-7-isobutyl-4,8-dioxo-9-phenethyloctahydropyrimido[1,2-a][1,4]diazepine-1(2H)-carboxamide] the inhibition at 10 µM was 50.3%.
`O=C1[C@H](Cc2ccc(O)cc2)CN2C(=O)c3sccc3N(C(=O)NCc3cccc4ccccc34)C2CN1CC1CCCCC1` (stereo partly drawn) [ID-27, (8R)-6-(cyclohexylmethyl)-8-(4-hydroxybenzyl)-N-(naphthalen-1-ylmethyl)-7,11-dioxo-4a,5,6,7,8,9-hexahydrothieno[3′,2′:4,5]pyrimido[1,2-a][1,4]diazepine-4(11H)-carboxamide] was tested, and the inhibition at 10 µM was 54.4%.
`CC(C)CCN1CC2N(C[C@@H](Cc3ccccc3)C1=O)C(=O)c1sccc1N2C(=O)NCc1ccc2c(c1)OCO2` (stereo partly drawn) [ID-34, (8R)—N-(benzo[d][1,3]dioxol-5-ylmethyl)-8-benzyl-6-isopentyl-7,11-dioxo-4a,5,6,7,8,9-hexahydrothieno[3′,2′:4,5]pyrimido[1,2-a][1,4]diazepine-4(11H)-carboxamide] gave an inhibition at 10 µM of 52.4%.
